{
  "source": "paper PMC10321640",
  "about": "“The VIPR2-selective antagonist KS-133 changes macrophage polarization and exerts potent anti-tumor effects as a single agent and in combination with an anti-PD-1 antibody” (PLOS ONE, 2023)",
  "key": {"CT26 tumors": {"system": "CT26 tumors", "assay": "In vivo anti-tumor evaluation, CT26 subcutaneous allografts", "set-up": "species or system BALB/cCrSlc female mice", "conditions": "Fig 2A, KS-133 30 μg/mouse s.c. daily", "method": "All experimental procedures that involved animals and their care were conducted in compliance with the Guide for the Care and Use of Laboratory Animals and ARRIVE guidelines. These animal experiments were approved by the Animal Care and Use Committee of Kagawa University (approval No. 21650) and conducted at Kagawa University in accordance with the guidelines. To establish subcutaneous allograft tumors, CT26 cells (1 × 10^5) were subcutaneously injected into the left groin region of BALB/cCrSlc female mice (6 weeks old; Japan SLC, Inc., Shizuoka, Japan) under isoflurane anesthesia. […] The tumor growth rate was recorded on days 1, 7, 14, and 21 by measuring the major and minor axes with a digital caliper. […]\nFig 2 Anti-tumor effects of KS-133 and KS-133 NPs with or without anti-PD-1 antibody in mice bearing CT26 subcutaneous allografts. […] (A) Anti-tumor efficacy of KS-133 (n = 9–10 mice per group, expressed as the mean ± SEM, *p < 0.01 and **p < 0.001 vs. vehicle control by two-way ANOVA). […] (B) Anti-tumor efficacy of KS-133 NPs (n = 11 mice per group, expressed as the mean ± SEM, *p < 0.05 and **p < 0.001 vs. vehicle control by two-way ANOVA). […] (C) Anti-tumor efficacy of KS-133 NPs and KS-133(P3S) NPs with an anti-PD-1 antibody (n = 6–8 mice per group, expressed as the mean ± SEM, *p < 0.01 and **p < 0.001 vs. Vehicle control by two-way ANOVA). […]"}, "[1]": {"system": "RAW264.7 murine macrophage-like cells", "assay": "In vitro gene expression of M1-like and M2-like macrophage markers (real-time PCR)", "type": "cell-based", "conditions": "RAW264.7 in 20% CT26-CM/DMEM, 3 days", "method": "The detailed method and DNA primer sequences were described previously. RAW264.7 murine macrophage-like cells and CT26.WT murine colorectal cancer cells (CRL-2638) were purchased from RIKEN BRC (Tsukuba, Japan) and American Type Cell Collection (Manassas, VA, USA), respectively. CT26 cells (4 × 10^6) were grown in T75 flask with 20 mL of RPMI medium containing 10% FBS for 3 days. The culture medium (CT26-CM) was collected and centrifuged at 400 g for 5 min. RAW264.7 cells (2.4 × 10^5) were incubated in 24-well plate in the presence or absence of KS-133 (KS-133 concentration = 1, 3, or 10 μM, DMSO concentration = 0.1%) with 20% CT26-CM/DMEM for 3 days. During the incubation, medium containing KS-133 was replaced every day. mRNA extraction was performed using ISOGEN (Nippon Gene, Tokyo, Japan) on day 3 after CT26-CM incubation, and cDNA was prepared. The gene expression of M1 markers (TNF-α, iNOS, CXCL10), M2 markers (Mrc-1, IL-1rn, CCL22), and β-actin was analyzed by real-time polymerase chain reaction (PCR) using a 7300 Fast Real-Time PCR System (Applied Biosystems, Thermo Fisher Scientific, MA, USA,) and Light Cycler Fast Start DNA Master kit (Applied Biosystems). The relative mRNA expression was determined using the 2^−ΔΔCt method. ΔΔCt was calculated using control group data.\nIt has been reported that when RAW264.7 cells are incubated in the presence of the culture supernatant of CT26 cells, M1-type macrophage marker mRNA expression is decreased, and that of M2-type macrophages is increased. Using this assay system, we evaluated whether KS-133 affect the mRNA expression of TNFα, iNOS, and CXCL10 as M1-type macrophage markers and Mrc-1, IL-1Rn, and CCL-22 as M2-type macrophage markers. […] Therefore, VIPR2 inhibition by KS-133 changes the macrophage polarity toward M1.\nFig 1 Variation of marker gene expression in M1- and M2-type macrophages in the presence of KS-133. Results are presented as the mean ± SEM (n = 3 independent experiments using separately treated cultures, *p < 0.05 vs. control by two-way ANOVA)."}, "[2]": {"conditions": "KS-133 10 μM, 0.1% DMSO, 2^−ΔΔCt, n = 3, p < 0.05 vs control"}},
  "note": "Where a SMILES comes first, the peptide text is derived from it. Bridges are numbered along the chain shown (N, C = ends).",
  "data": [
    {"compound": "CC[C@H](C)[C@H](NC(=O)[C@H](CC(C)C)NC(=O)[C@@H]1CC(=O)NCCCC[C@@H]2NC(=O)[C@@H]3CCCN3C(=O)[C@H](CC(C)C)NC(=O)[C@H](Cc3ccc(O)cc3)NC(=O)[C@@H]3CCCN3C(=O)[C@@H]3CCCN3C(=O)[C@@H](NC(C)=O)CSSC[C@H](NC(=O)[C@H](CC(C)C)NC(=O)[C@H](Cc3ccc(O)cc3)NC2=O)C(=O)N1)C(N)=O", "note": "[KS-133] (Ac-CPPYLPKYLCDLI-NH2; disulfide 1-10; lactam 7-11)", "values": [
      {"measurement": "effect on CT26 tumor growth (in words)", "setting": "CT26 tumors; alone or with anti-PD-1 antibody 200 μg/mouse i.p. three times in a week, combination p < 0.001 vs vehicle", "result": "tended to suppress CT26 tumor growth"},
      {"measurement": "tumor volume, control group set as 100%", "setting": "CT26 tumors; anti-PD-1 antibody 200 μg/mouse i.p. three times in a week, 3 weeks, n = 9–10 mice per group", "result": 66, "unit": "%"},
      {"measurement": "mRNA expression level of CXCL10 (M1-type macrophage marker)", "setting": "[1]; [2]", "result": "significantly enhanced"},
      {"measurement": "mRNA expression level of iNOS (M1-type macrophage marker)", "setting": "[1]; [2]", "result": "significantly enhanced"},
      {"measurement": "CCL22 expression (M2-type macrophage marker)", "setting": "[1]", "result": "no effect"},
      {"measurement": "IL-1Rn expression (M2-type macrophage marker)", "setting": "[1]", "result": "no effect"},
      {"measurement": "mRNA expression of Mrc-1 (M2-type macrophage marker)", "setting": "[1]; n = 3, p < 0.05 vs control", "result": "significantly decreased"}
    ]}
  ]
}
